{"source": "paper PMC12586182", "about": "(Frontiers in Oncology, 2025)", "key": {"MEK1 [1]": {"molecular_target": "T1, MEK1 (Homo sapiens, UniProt Q02750)", "T1 construct": "purchased Carna Biosciences, Inc. 07–41", "experiment": "Kinase enzyme activity assay (ELISA, in-house)", "type": "biochemical"}, "[2]": {"system": "panel of 160 human cancer cell lines", "experiment": "Cancer cell panel profiling in cell viability assays (ATPlite)", "type": "cell-based", "excerpt": "A panel of 160 cancer cell lines was used in this study. […]. Cell lines were purchased from the American Type Culture Collection (ATCC) (Manassas, VA, USA), the German Collection of Microorganisms and Cell Cultures (DSMZ) (Braunschweig, Germany), the RIKEN BioResource Research Center (Tsukuba, Ibaraki, Japan) or the Japanese Collection of Research Bioresources (JCRB) (Ibaraki City, Osaka, Japan). All cell lines were propagated in the cell culture media as indicated in Supplementary Table S1 . Cell viability assays were carried out within ten passages of the original vials. The authenticity of the ATCC and DSMZ cell lines has been confirmed by short tandem repeat analysis at both institutions. […]\nIntracellular ATP content was used as an indirect readout of cell number using the ATPlite 1Step bioluminescence assay (Revvity, Groningen, the Netherlands). […] After 24 hours of incubation, the starting cell number was determined by adding ATPlite to each well of a control plate and recording luminescence on an Envision multimode reader (Revvity, Waltham, MA, USA) ([4]). […] After incubation for an additional 72 hours, the ATP content was measured in each well using ATPlite. […] Cell doublings were determined by relating the cell number of vehicle-treated controls to the starting cell number for each cell line. […]"}, "MEK1 [3]": {"molecular_target": "T1, MEK1", "set-up": "method as in Reiff et al. [15]", "settings": "1 mmol/L ATP; ref Reiff et al. [15]; read-out: IC50 in an enzyme assay for MEK1; cited from earlier work"}, "activated B-RAF": {"molecular_target": "activated B-RAF (Homo sapiens, UniProt P15056)", "sequence (P15056 whole entry)": "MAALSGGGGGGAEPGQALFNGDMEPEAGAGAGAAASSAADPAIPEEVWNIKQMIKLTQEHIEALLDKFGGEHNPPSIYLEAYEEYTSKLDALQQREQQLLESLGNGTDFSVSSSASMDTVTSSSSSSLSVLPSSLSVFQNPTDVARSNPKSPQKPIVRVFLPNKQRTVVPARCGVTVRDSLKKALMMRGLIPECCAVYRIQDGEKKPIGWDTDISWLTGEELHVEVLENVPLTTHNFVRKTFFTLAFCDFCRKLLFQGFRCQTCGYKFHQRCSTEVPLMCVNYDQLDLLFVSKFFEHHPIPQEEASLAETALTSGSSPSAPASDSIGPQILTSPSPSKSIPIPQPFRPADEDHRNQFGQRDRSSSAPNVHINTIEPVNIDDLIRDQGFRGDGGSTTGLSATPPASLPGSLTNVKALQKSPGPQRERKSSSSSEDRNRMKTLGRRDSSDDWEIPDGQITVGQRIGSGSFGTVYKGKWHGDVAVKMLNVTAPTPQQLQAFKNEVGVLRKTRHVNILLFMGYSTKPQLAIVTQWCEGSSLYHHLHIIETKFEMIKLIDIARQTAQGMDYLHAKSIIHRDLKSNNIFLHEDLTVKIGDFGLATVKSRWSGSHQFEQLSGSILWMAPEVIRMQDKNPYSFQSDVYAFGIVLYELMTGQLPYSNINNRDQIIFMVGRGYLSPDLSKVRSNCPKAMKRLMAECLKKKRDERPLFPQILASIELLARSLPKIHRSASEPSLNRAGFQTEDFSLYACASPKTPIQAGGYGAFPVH", "experiment": "biochemical"}, "[4]": {"molecular_target": "biotinylated, inactive MEK1 (Homo sapiens, UniProt Q02750)", "sequence (Q02750 whole entry)": "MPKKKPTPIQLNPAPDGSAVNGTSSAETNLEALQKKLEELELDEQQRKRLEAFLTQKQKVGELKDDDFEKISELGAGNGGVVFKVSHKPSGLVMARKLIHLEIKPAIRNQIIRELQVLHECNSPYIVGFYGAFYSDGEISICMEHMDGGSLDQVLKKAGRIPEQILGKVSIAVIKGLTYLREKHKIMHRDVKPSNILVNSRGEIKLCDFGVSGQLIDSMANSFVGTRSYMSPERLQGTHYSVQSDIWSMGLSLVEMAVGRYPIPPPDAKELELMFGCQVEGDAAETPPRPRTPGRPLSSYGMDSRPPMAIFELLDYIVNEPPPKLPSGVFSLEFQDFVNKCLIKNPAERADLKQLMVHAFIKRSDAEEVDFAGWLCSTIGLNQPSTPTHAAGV", "experiment": "Surface plasmon resonance binding (Biacore 1S+)", "settings": "SPR"}, "B-RAF [5]": {"molecular_target": "T2, B-RAF (Homo sapiens, UniProt P15056)", "experiment": "Kinase enzyme activity assay at 1 mmol/L ATP (Carna)", "protocol": "(§1) Inhibition of MLK1 and B-RAF at K M,ATP was determined in a radiometric assay using ^32P-labeled ATP at Eurofins Cerep SA (Celle-Lévescault, France)."}, "B-RAF [V600E]": {"molecular_target": "B-RAF [V600E] (Homo sapiens, UniProt P15056, V600E)", "sequence (P15056 whole entry V600E)": "as the sequence (P15056 whole entry) above, with V600E counted along it", "experiment": "Kinase enzyme activity assay at 1 mmol/L ATP (Carna)", "protocol": "as §1"}, "SIK3": {"molecular_target": "SIK3 (Homo sapiens, UniProt Q9Y2K2)", "sequence (Q9Y2K2 whole entry)": "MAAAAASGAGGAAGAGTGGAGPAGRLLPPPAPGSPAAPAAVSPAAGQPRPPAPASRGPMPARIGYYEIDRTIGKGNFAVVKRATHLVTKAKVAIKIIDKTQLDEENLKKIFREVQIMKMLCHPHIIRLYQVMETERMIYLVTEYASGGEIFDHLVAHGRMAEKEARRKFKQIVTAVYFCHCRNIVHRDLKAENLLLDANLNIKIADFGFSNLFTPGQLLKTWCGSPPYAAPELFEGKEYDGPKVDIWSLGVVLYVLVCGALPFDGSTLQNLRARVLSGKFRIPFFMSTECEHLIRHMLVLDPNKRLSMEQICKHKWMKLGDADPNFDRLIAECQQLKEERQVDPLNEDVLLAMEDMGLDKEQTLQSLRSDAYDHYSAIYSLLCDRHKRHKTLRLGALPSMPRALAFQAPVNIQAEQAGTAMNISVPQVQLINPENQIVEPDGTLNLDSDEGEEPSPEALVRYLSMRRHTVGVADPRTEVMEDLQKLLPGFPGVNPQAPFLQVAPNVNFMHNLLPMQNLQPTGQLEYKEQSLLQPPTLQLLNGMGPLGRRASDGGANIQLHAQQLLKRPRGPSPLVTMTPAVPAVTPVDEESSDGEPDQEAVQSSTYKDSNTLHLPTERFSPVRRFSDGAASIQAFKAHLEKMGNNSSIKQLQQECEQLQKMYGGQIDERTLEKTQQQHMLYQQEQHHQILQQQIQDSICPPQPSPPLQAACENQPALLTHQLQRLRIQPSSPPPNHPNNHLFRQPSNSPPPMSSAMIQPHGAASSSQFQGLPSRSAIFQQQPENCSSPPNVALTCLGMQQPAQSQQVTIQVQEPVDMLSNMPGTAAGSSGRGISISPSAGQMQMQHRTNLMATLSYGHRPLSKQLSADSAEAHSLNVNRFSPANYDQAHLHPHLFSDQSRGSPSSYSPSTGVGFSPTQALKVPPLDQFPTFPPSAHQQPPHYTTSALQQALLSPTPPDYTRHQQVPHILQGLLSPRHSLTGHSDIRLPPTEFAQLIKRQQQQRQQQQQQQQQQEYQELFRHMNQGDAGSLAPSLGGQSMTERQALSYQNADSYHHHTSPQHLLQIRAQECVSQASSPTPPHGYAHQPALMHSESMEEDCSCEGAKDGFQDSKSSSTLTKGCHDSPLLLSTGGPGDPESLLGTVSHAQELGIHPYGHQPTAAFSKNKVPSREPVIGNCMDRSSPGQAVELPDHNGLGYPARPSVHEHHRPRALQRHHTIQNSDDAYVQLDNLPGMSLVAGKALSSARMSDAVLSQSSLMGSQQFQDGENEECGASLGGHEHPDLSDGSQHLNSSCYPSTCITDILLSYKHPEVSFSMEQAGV", "experiment": "Kinase enzyme activity assay at 1 mmol/L ATP (Carna)", "protocol": "as §1"}, "MLK1": {"molecular_target": "MLK1 (Homo sapiens, UniProt P80192)", "sequence (P80192 whole entry)": "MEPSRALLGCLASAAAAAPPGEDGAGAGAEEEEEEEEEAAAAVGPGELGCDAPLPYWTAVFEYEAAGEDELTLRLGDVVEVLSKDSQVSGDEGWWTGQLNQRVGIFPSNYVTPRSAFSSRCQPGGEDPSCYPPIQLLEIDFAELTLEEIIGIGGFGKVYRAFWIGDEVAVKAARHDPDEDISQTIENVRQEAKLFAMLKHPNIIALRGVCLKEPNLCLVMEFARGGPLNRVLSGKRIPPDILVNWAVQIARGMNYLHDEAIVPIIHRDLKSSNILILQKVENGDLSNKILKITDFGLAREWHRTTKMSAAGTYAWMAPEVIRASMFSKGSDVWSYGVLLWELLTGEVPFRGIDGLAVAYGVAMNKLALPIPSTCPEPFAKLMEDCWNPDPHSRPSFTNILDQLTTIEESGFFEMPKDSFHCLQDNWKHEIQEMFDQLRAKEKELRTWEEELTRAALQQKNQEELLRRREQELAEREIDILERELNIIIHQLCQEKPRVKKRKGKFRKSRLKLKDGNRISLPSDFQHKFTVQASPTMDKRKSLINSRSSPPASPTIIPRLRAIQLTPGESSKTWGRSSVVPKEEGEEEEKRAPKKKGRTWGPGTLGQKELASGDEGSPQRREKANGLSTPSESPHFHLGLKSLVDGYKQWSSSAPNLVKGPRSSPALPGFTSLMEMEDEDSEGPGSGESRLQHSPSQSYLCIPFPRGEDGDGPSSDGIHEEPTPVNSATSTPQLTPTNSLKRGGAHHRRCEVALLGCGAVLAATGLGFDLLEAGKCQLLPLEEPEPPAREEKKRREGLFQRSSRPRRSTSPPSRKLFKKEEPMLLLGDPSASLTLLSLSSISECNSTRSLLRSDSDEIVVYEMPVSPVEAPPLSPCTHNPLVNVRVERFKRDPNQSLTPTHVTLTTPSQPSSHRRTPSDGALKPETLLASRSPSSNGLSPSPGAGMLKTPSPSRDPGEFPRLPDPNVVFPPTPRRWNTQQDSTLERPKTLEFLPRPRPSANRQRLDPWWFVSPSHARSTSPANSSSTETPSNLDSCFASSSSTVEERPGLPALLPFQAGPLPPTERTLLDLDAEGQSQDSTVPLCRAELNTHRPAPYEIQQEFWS", "experiment": "Radiometric kinase assay with 32P-labeled ATP (Eurofins)", "protocol": "Inhibition of MLK1 and B-RAF at K M,ATP was determined in a radiometric assay using ^32P-labeled ATP at Eurofins Cerep SA (Celle-Lévescault, France). Interaction with SIK3 was assessed in a competition binding assay at Eurofins DiscoverX LLC (San Diego, CA, USA)."}, "B-RAF [6]": {"molecular_target": "T2, B-RAF", "experiment": "Radiometric kinase assay with 32P-labeled ATP (Eurofins), cascade assay", "protocol": "as §1"}}, "note": "Where “and” joins values, the source holds several entries; their conditions need not be identical. Equal values may be shown once. Entries after “also recorded” stand apart in the source; their conditions may differ. Read-outs that look alike come from different tables or passages of the source.", "data": [{"smiles": "O=C(c1ccc(Oc2ccccc2)cc1Cl)c1c[nH]c2ncnc(N[C@@H]3CC[C@@H](CO)OC3)c12", "note": "[nemtabrutinib]", "values": [{"measurement": "IC50", "setting": "MEK1 [1]; 1 mmol/L ATP, read-out: IC50, MEK1", "value": 456, "unit": "nM"}, {"measurement": "IC50", "setting": "MEK1 [1]; IC50, MEK1", "value": "~9", "unit": "nM"}, {"measurement": "IC50", "setting": "MEK1 [1]; K M,bin ATP (10 µmol/L ATP), read-out: IC50, MEK1", "value": "8.5 nM and 8.46 nM"}, {"measurement": "Extent of inhibition of viability", "setting": "[2]; SU-DHL-6 and REC-1 cells, dose-response curves", "value": "almost complete inhibition of viability"}, {"measurement": "Sensitivity of BRAF-mutant versus BRAF wild-type cell lines", "setting": "[2]; average over cell panel, ANOVA", "value": "three times higher; also recorded: three times more sensitive"}, {"measurement": "IC50", "setting": "MEK1 [3]", "value": 599, "unit": "nM"}, {"measurement": "Kd", "setting": "activated B-RAF", "value": 1200, "unit": "nM"}, {"measurement": "log (kd)", "setting": "[4]", "value": -3.49}, {"measurement": "log(ka)", "setting": "[4]", "value": 4.50}, {"measurement": "t1/2", "setting": "[4]", "value": 35.67, "unit": "min"}, {"measurement": "IC50", "setting": "B-RAF [5]", "value": 335, "unit": "nM"}, {"measurement": "IC50", "setting": "B-RAF [V600E]", "value": 220, "unit": "nM"}, {"measurement": "IC50", "setting": "SIK3", "value": 9320, "unit": "nM"}, {"measurement": "IC50", "setting": "MLK1", "value": 4870, "unit": "nM"}, {"measurement": "Inhibition of MLK1", "setting": "MLK1", "value": "did not inhibit"}, {"measurement": "IC50", "setting": "B-RAF [6]", "value": 73, "unit": "nM"}]}]}
